target: IRAK4 (Homo sapiens (Human), UniProt Q9NWZ3); test: IRAK4 Inhibition Assay; assay type: biochemical; conditions: not given
Procedure: IRAK4 Inhibition Assay The assays were performed in U-bottom 384-well plates. […] The reaction was initiated by the combination of IRAK4 with substrates and test compounds. The reaction mixture was incubated at room temperature for 60 min. and terminated by adding 45 μL of 35 mM EDTA to each sample.

Chain of IRAK4 (Q9NWZ3 whole entry, species assumed): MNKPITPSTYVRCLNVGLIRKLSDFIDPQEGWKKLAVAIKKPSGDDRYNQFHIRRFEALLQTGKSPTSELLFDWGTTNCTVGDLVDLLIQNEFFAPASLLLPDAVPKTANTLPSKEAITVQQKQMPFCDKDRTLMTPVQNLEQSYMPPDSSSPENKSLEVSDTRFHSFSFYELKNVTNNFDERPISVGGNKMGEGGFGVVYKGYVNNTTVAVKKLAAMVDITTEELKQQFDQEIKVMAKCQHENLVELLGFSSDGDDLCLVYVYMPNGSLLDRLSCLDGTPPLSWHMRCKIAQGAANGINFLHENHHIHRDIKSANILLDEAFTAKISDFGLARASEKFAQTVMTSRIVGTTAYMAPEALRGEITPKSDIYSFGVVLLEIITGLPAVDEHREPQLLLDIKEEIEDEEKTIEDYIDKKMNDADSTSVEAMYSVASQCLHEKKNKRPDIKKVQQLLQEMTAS

| Compound | IC50 |
| --- | --- |
| CC(C)(O)[C@H](F)CNC(=O)c1cnc(Nc2nc(-c3cccnc3)cs2)cc1NC1CC1 [Example 23, 4-(cyclopropylamino)-N-((2R)-2-fluoro-3-hydroxy-3-methylbutyl)-6-((4-(3-pyridinyl)-1,3-thiazol-2-yl)amino)nicotinamide] | 23.3 nM |

same assay, conditions: ATP 500 μM; IRAK4 0.6 nM; 60 min at room temperature; read-out: IRAK4 IC50

| Compound | IC50 |
| --- | --- |
| CC(C)Nc1cc(Nc2ccc(C#N)c(N3CCC(O)C3)n2)ncc1C(=O)NC[C@@H](F)C(C)(C)O (stereo in doubt) [Example 27, 6-((5-cyano-6-((3S)-3-hydroxy-1-pyrrolidinyl)-2-pyridinyl)amino)-N-((2R)-2-fluoro-3-hydroxy-3-methylbutyl)-4-(isopropylamino)nicotinamide] | 6 nM |
| CNC(=O)c1cnc(Nc2ccc(C#N)cn2)cc1N[C@@H](c1ccccc1)[C@H](O)CO [Example 1, 6-((5-cyano-2-pyridinyl)amino)-4-(((1S,2S)-2,3-dihydroxy-1-phenylpropyl)amino)-N-methylnicotinamide] | 53.9 nM |
| CC(C)Nc1cc(Nc2ccc(C#N)cn2)ncc1C(=O)NC[C@@H](F)C(C)(C)O [Example 2, 6-((5-cyano-2-pyridinyl)amino)-N-((2R)-2-fluoro-3-hydroxy-3-methylbutyl)-4-(isopropylamino)nicotinamide] | 2 nM |
| CC(C)(O)[C@H](F)CNC(=O)c1cnc(Nc2ccc(C#N)cn2)cc1NCC(F)(F)F [Example 3, 6-((5-cyano-2-pyridinyl)amino)-N-((2R)-2-fluoro-3-hydroxy-3-methylbutyl)-4-((2,2,2-trifluoroethyl)amino)nicotinamide] | 14.8 nM |
| CCNc1cc(Nc2ccc(C#N)cn2)ncc1C(=O)NC[C@@H](F)C(C)(C)O [Example 4, 6-((5-cyano-2-pyridinyl)amino)-4-(ethylamino)-N-((2R)-2-fluoro-3-hydroxy-3-methylbutyl)nicotinamide] | 10.3 nM |
| CC(C)Nc1cc(Nc2ccc(C#N)cn2)ncc1C(=O)N[C@H]1CC[C@H](C(=O)NC2CC2)CC1 [Example 6, 6-((5-cyanopyridin-2-yl)amino)-N-((1R,4R)-4-(cyclopropylcarbamoyl)cyclohexyl)-4-(isopropylamino)nicotinamide] | 5.5 nM |
| CC(C)Nc1cc(Nc2ccc(C#N)cn2)ncc1C(=O)N[C@H]1CC[C@H](C(=O)N[C@H]2C[C@H]2F)CC1 [Example 7, 6-((5-cyano-2-pyridinyl)amino)-N-(trans-4-(((1S,2R)-2-fluorocyclopropyl)carbamoyl)cyclohexyl)-4-(isopropylamino)nicotinamide] | 10.4 nM |
| CC(=O)N1CCC(NC(=O)c2cnc(Nc3ccc(C#N)cn3)cc2NC(C)C)CC1 [Example 8, N-(1-acetyl-4-piperidinyl)-6-((5-cyano-2-pyridinyl)amino)-4-(isopropylamino)nicotinamide] | 30.7 nM |
| CC(=O)N[C@H]1CC[C@H](NC(=O)c2cnc(Nc3ccc(C#N)cn3)cc2NC(C)C)CC1 [Example 9, N-(trans-4-acetamidocyclohexyl)-6-((5-cyano-2-pyridinyl)amino)-4-(isopropylamino)nicotinamide] | 7.4 nM |
| CC(=O)N[C@H]1CC[C@H](NC(=O)c2cnc(Nc3ccc(C#N)cn3)cc2NC2CCOCC2F)CC1 (stereo partly drawn) [Example 11, N-((1R,4R)-4-acetamidocyclohexyl)-6-((5-cyanopyridin-2-yl)amino)-4-(((3S,4R)-3-fluorotetrahydro-2H-pyran-4-yl)amino)nicotinamide] | 11.1 nM |
| CC(C)Nc1cc(Nc2ncc(C#N)cc2Cl)ncc1C(=O)NC[C@@H](F)C(C)(C)O [Example 12, 6-((3-chloro-5-cyano-2-pyridinyl)amino)-N-((2R)-2-fluoro-3-hydroxy-3-methylbutyl)-4-(isopropylamino)nicotinamide] | 1.9 nM |
| CC(=O)N[C@H]1CC[C@H](NC(=O)c2cnc(Nc3ncc(C#N)cc3Cl)cc2NC(C)C)CC1 [Example 15, N-((1r,4r)-4-acetamidocyclohexyl)-6-((3-chloro-5-cyanopyridin-2-yl)amino)-4-(isopropylamino)nicotinamide] | 5.2 nM |
| CNC(=O)[C@H]1CC[C@H](NC(=O)c2cnc(Nc3ncc(C#N)cc3Cl)cc2NC(C)C)CC1 [Example 16, 6-((3-chloro-5-cyanopyridin-2-yl)amino)-4-(isopropylamino)-N-((1r,4r)-4-(methylcarbamoyl)cyclohexyl)nicotinamide] | 6.3 nM |
| CC(C)Nc1cc(Nc2ncc(C#N)cc2F)ncc1C(=O)NC[C@@H](F)C(C)(C)O [Example 17, 6-((5-cyano-3-fluoro-2-pyridinyl)amino)-N-((2R)-2-fluoro-3-hydroxy-3-methylbutyl)-4-(isopropylamino)nicotinamide] | 9.6 nM |
| CNC(=O)[C@H]1CC[C@H](NC(=O)c2cnc(Nc3ncc(C#N)cc3F)cc2NC(C)C)CC1 [Example 18, 6-((5-cyano-3-fluoropyridin-2-yl)amino)-4-(isopropylamino)-N-((1r,4r)-4-(methylcarbamoyl)cyclohexyl)nicotinamide] | 3.4 nM |
| CC(=O)N[C@H]1CC[C@H](NC(=O)c2cnc(Nc3ncc(C#N)cc3F)cc2NC(C)C)CC1 [Example 19, N-(trans-4-acetamidocyclohexyl)-6-((5-cyano-3-fluoro-2-pyridinyl)amino)-4-(isopropylamino)nicotinamide] | 4.8 nM |
| CC(C)Nc1cc(Nc2ccncn2)ncc1C(=O)NC[C@@H](F)C(C)(C)O [Example 20, N-((2R)-2-fluoro-3-hydroxy-3-methylbutyl)-4-(isopropylamino)-6-(4-pyrimidinylamino)nicotinamide] | 11.7 nM |
| CC(C)(O)[C@H](F)CNC(=O)c1cnc(Nc2ccncn2)cc1NC1CC1 [Example 21, 4-(cyclopropylamino)-N-((2R)-2-fluoro-3-hydroxy-3-methylbutyl)-6-(4-pyrimidinylamino)nicotinamide] | 13.3 nM |
| CC(C)Nc1cc(Nc2ncc(C#N)cn2)ncc1C(=O)NC[C@@H](F)C(C)(C)O [Example 22, 6-((5-cyano-2-pyrimidinyl)amino)-N-((2R)-2-fluoro-3-hydroxy-3-methylbutyl)-4-(isopropylamino)nicotinamide] | 5.3 nM |
| CC(C)Nc1cc(Nc2ccnc(NC3CC3)n2)ncc1C(=O)NC[C@@H](F)C(C)(C)O [Example 24, 6-((2-(cyclopropylamino)-4-pyrimidinyl)amino)-N-((2R)-2-fluoro-3-hydroxy-3-methylbutyl)-4-(isopropylamino)nicotinamide] | 11 nM |
| CC(C)Nc1cc(Nc2ccnc(NC3CCCOC3)n2)ncc1C(=O)NC[C@@H](F)C(C)(C)O (stereo partly drawn) [Example 25, N-((2R)-2-fluoro-3-hydroxy-3-methylbutyl)-4-(isopropylamino)-6-((2-(tetrahydro-2H-pyran-3-ylamino)-4-pyrimidinyl)amino)nicotinamide] | 9.9 nM |
| CC(C)Nc1cc(Nc2ccnc(N3CCC(F)C3)n2)ncc1C(=O)NC[C@@H](F)C(C)(C)O (stereo partly drawn) [Example 26, N-((2R)-2-fluoro-3-hydroxy-3-methylbutyl)-6-((2-(3-fluoro-1-pyrrolidinyl)-4-pyrimidinyl)amino)-4-(isopropylamino)nicotinamide] | 4.8 nM |
| CC(=O)N[C@H](C)CCNC(=O)c1cnc(Nc2ncc(C#N)cc2Cl)cc1NC(C)C [Example 28, (R)—N-(3-acetamidobutyl)-6-((3-chloro-5-cyanopyridin-2-yl)amino)-4-(isopropylamino)nicotinamide] | 1.5 nM |
